Test systems include SF-268; SK-MEL-5; PC-3; KM12; SW-620; HOP-62; NCI-H23; NCI/ADR-RES; SN12C; SR; MDA-MB-231; U-251; UO-31; 786-0; NCI-H226; HCT-15; SK-MEL-2; OVCAR-3; EKVX; NCI-H460.
Common to all, as to assay: NCI tumour cell line growth inhibition, 48 h

The structures appear in SMILES notation.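 Method: 48-hour compound exposure of cells in 96-well plates, five concentrations, linear interpolation of endpoints. GI50 = concentration required for 50% inhibition of growth.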 Calls of active or inactive are those of the source. No stated cut-off is given here; in the data, active = GI50 up to about 1.1 µM and inactive = higher.

Regarding `COc1cc2c(cc1O)[C@]1(Cc3ccc4c(c3C1=O)OCO4)N(C)CC2`, the GI50 with SF-268, with SK-MEL-5, with PC-3, in the test with KM12, in the test on SW-620 and in the test on HOP-62 was > 100 µM (inactive) in each case. Further, the GI50 in the test on NCI-H23, in the test with NCI/ADR-RES, in the test on SN12C, with SR, with MDA-MB-231 and with U-251 was > 100 µM (inactive) each time. Further, the GI50 in the test on UO-31 is > 100 µM (inactive); with 786-0 it was > 100 µM (inactive); in the test on NCI-H226, > 100 µM (inactive); with HCT-15, above 100 µM; in the test on SK-MEL-2, > 100 µM (inactive); in the test on OVCAR-3 it was > 100 µM (inactive). In addition, the GI50 with EKVX and in the test on NCI-H460 was > 100 µM (inactive) each time.

For `O=C1N[C@@H]2c3c(Br)sc(Br)c3C(=O)[C@@H]2N1`, the GI50 in the test with SF-268 was 3.33 µM (inactive); in the test with SK-MEL-5, 9.29 µM (inactive); in the test on PC-3, 3.05 µM (inactive); in the test on KM12, 5.28 µM (inactive); with SW-620, 1.77 µM (inactive); in the test with HOP-62 it was 6.65 µM (inactive). In addition, the GI50 is 4.43 µM (inactive) in the test on NCI-H23; 15.4 µM (inactive) in the test on NCI/ADR-RES; 4.22 µM (inactive) in the test with SN12C; 1.74 µM (inactive) in the test on SR; 4.83 µM (inactive) in the test on MDA-MB-231; 2.53 µM (inactive) in the test on U-251. The GI50 was 3.53 µM (inactive) with UO-31; 2.41 µM (inactive) in the test on 786-0; 29.6 µM (inactive) in the test on NCI-H226; 3.16 µM in the test on HCT-15; 4.82 µM (inactive) in the test with SK-MEL-2; 2.59 µM (inactive) in the test with OVCAR-3. The GI50 is 4.08 µM (inactive) with EKVX and 6.44 µM (inactive) in the test on NCI-H460.

Take `CCn1c(SCC(=O)NNC(=S)NC)nc2ccccc2c1=O`: the GI50 in the test with SF-268 is > 100 µM (inactive); in the test with SK-MEL-5, > 100 µM (inactive); in the test on PC-3, 96.8 µM (inactive); in the test with KM12 it was > 100 µM (inactive); in the test with SW-620, > 100 µM (inactive); with HOP-62 it was > 100 µM (inactive). Further, the GI50 with NCI-H23, in the test with NCI/ADR-RES, in the test with SN12C, with SR, in the test on MDA-MB-231 and in the test on U-251 was > 100 µM (inactive) throughout. The GI50 in the test on UO-31 is 62.2 µM (inactive); in the test with 786-0, > 100 µM (inactive); with NCI-H226, > 100 µM (inactive); with HCT-15, above 100 µM; with SK-MEL-2, > 100 µM (inactive); with OVCAR-3, > 100 µM (inactive). For the same molecule, the figures for the GI50 with EKVX and with NCI-H460 were > 100 µM (inactive) and 18.6 µM (inactive), respectively.

In the case of `O=C(C1OC1c1ccc(O)cc1)C12CC3CC(CC(C3)C1)C2` (stereo not given), the GI50 with SF-268 is > 87.1 µM (inactive); in the test with SK-MEL-5 it was 61.7 µM (inactive); in the test with PC-3, 85.5 µM (inactive); in the test with KM12, 98.9 µM (inactive); in the test on SW-620, 27.7 µM (inactive); in the test with HOP-62 it was > 100 µM (inactive). Moreover, the GI50 is 97.9 µM (inactive) in the test with NCI-H23; 52.1 µM (inactive) in the test with NCI/ADR-RES; 47.1 µM (inactive) in the test on SN12C; 30.1 µM (inactive) with SR; > 100 µM (inactive) in the test on MDA-MB-231; > 76 µM (inactive) with U-251. The GI50 with UO-31 was 32.1 µM (inactive); with 786-0, 31.6 µM (inactive); in the test with NCI-H226, > 100 µM (inactive); in the test with HCT-15, 53.2 µM; in the test on SK-MEL-2, > 100 µM (inactive); with OVCAR-3 it was 45.1 µM (inactive). Also, the GI50 in the test with EKVX was > 58.1 µM (inactive); in the test on NCI-H460 it was > 80.9 µM (inactive).

As to `c1ccc(-c2cc(-c3cc(-c4ccccc4)no3)on2)cc1`, the GI50 was 66.1 µM (inactive) with SF-268; > 100 µM (inactive) in the test with SK-MEL-5; > 100 µM (inactive) in the test with PC-3; > 100 µM (inactive) with KM12; > 100 µM (inactive) with SW-620; 72.1 µM (inactive) in the test with HOP-62. Moreover, the GI50 in the test with NCI-H23 was 49.1 µM (inactive); in the test with NCI/ADR-RES, 29.7 µM (inactive); in the test on SN12C it was 42.5 µM (inactive); in the test with SR it was 11.5 µM (inactive); with MDA-MB-231 it was 24.1 µM (inactive); in the test with U-251 it was 29.2 µM (inactive). The GI50 in the test with UO-31 is > 100 µM (inactive); in the test with 786-0 it was 72.1 µM (inactive); in the test on NCI-H226, 71 µM (inactive); with HCT-15, above 100 µM; in the test on SK-MEL-2 it was > 100 µM (inactive); with OVCAR-3, 39.5 µM (inactive). Also, the GI50 with EKVX was 72.6 µM (inactive); in the test with NCI-H460, 45.1 µM (inactive).

As to `COc1cc(/N=N/c2cccc(S(N)(=O)=O)c2)c2ccccc2c1N`, the GI50 in the test on SF-268 was 15 µM (inactive); with SK-MEL-5, 1.8 µM (inactive); in the test on PC-3, 11.5 µM (inactive); with KM12, 12.9 µM (inactive); in the test on SW-620, 23.9 µM (inactive); with HOP-62, 7.35 µM (inactive). Besides, the GI50 in the test on NCI-H23 was 2.02 µM (inactive); with NCI/ADR-RES it was 22 µM (inactive); with SN12C it was 8.89 µM (inactive); in the test with SR, 11.3 µM (inactive); in the test with MDA-MB-231, 10.5 µM (inactive); in the test with U-251, 7.48 µM (inactive). The GI50 in the test with UO-31 is 15.3 µM (inactive); with 786-0 it was 13.4 µM (inactive); with NCI-H226, 19.9 µM (inactive); with HCT-15, 18.2 µM; in the test with SK-MEL-2 it was 2.26 µM (inactive); with OVCAR-3, 4.86 µM (inactive). For the same molecule, the GI50 is 13.8 µM (inactive) with EKVX and 9.98 µM (inactive) with NCI-H460.

Consider `O=C(O)CCC(=O)c1ccc2sc3ccccc3c2c1`, for which the GI50 in the test on SF-268, in the test with SK-MEL-5, in the test on PC-3, in the test with KM12, in the test on SW-620 and in the test with HOP-62 was > 100 µM (inactive) each time. The GI50 in the test on NCI-H23, with NCI/ADR-RES, in the test with SN12C, in the test with SR, with MDA-MB-231 and in the test on U-251 was > 100 µM (inactive) each time. The GI50 with UO-31 is > 100 µM (inactive); in the test on 786-0 it was > 100 µM (inactive); in the test with NCI-H226, > 100 µM (inactive); in the test on HCT-15 it was above 100 µM; in the test with SK-MEL-2 it was > 100 µM (inactive); in the test on OVCAR-3 it was > 100 µM (inactive). In addition, the GI50 in the test with EKVX and in the test with NCI-H460 was > 100 µM (inactive) each time.

In the case of `CC(C)Oc1cc(O)c2c(c1)OCC=C2CCC(=O)O`, the GI50 with SF-268 is 40.6 µM (inactive); in the test on SK-MEL-5, 18.4 µM (inactive); in the test on PC-3 it was 54.6 µM (inactive); in the test on KM12 it was 31.5 µM (inactive); with SW-620 it was 27.8 µM (inactive); in the test with HOP-62, 30.5 µM (inactive). Moreover, the GI50 in the test with NCI-H23 was 37.2 µM (inactive); in the test on NCI/ADR-RES it was 28.4 µM (inactive); in the test on SN12C it was 21.3 µM (inactive); in the test with SR, 34 µM (inactive); with MDA-MB-231 it was 36.8 µM (inactive); in the test on U-251, 67.1 µM (inactive). For the same molecule, the GI50 was 24.1 µM (inactive) in the test on UO-31; 26.3 µM (inactive) in the test with 786-0; 15.5 µM (inactive) in the test on NCI-H226; 23.2 µM in the test with HCT-15; 26.8 µM (inactive) in the test with SK-MEL-2; 41 µM (inactive) in the test with OVCAR-3. The GI50 with EKVX is 17.3 µM (inactive); in the test with NCI-H460 it was 33 µM (inactive).

For `Cc1ccc(-c2nc3cc(Cl)ccc3[nH]2)cc1`, the GI50 was > 100 µM (inactive) in the test with SF-268; > 100 µM (inactive) in the test with SK-MEL-5; 79.1 µM (inactive) with PC-3; 46.8 µM (inactive) in the test on KM12; > 100 µM (inactive) in the test with SW-620; > 100 µM (inactive) with HOP-62. The GI50 was > 100 µM (inactive) in the test with NCI-H23; 71.3 µM (inactive) in the test on NCI/ADR-RES; > 100 µM (inactive) in the test on SN12C; 3.38 µM (inactive) with SR; > 100 µM (inactive) in the test on MDA-MB-231; > 100 µM (inactive) in the test with U-251. Besides, the GI50 in the test on UO-31 is > 100 µM (inactive); in the test on 786-0, > 100 µM (inactive); in the test on NCI-H226, > 100 µM (inactive); with HCT-15, 80.5 µM; in the test with SK-MEL-2, > 100 µM (inactive); in the test with OVCAR-3, > 100 µM (inactive). Further, the GI50 with EKVX and in the test on NCI-H460 was > 100 µM (inactive) in each case.

For `COC(=O)CCC(C)[C@H]1CCC2C3C(C[C@H](OC(C)=O)[C@@]21C)[C@@]1(C)CCC2(C[C@H]1C[C@H]3OC(C)=O)OOC1(CCC(C(C)(C)C)CC1)OO2` (stereo not given in full), the GI50 in the test on SF-268 is 18.6 µM (inactive); with SK-MEL-5, 22.6 µM (inactive); in the test with PC-3, 6.7 µM (inactive); in the test on KM12, 14.1 µM (inactive); in the test on SW-620 it was 12.3 µM (inactive); in the test on HOP-62, 9.73 µM (inactive). In addition, the GI50 is 9.42 µM (inactive) in the test on NCI-H23; > 100 µM (inactive) with NCI/ADR-RES; 58.2 µM (inactive) with SN12C; 4.45 µM (inactive) with SR; 46.3 µM (inactive) in the test on MDA-MB-231; 6.73 µM (inactive) with U-251. The GI50 with UO-31 is 12.4 µM (inactive); with 786-0, 13.5 µM (inactive); with NCI-H226, 59 µM (inactive); with HCT-15 it was 50 µM; in the test on SK-MEL-2, > 100 µM (inactive); with OVCAR-3, 6.85 µM (inactive). Moreover, the values for the GI50 with EKVX and with NCI-H460 were 4.12 µM (inactive) and 5.65 µM (inactive), respectively.

The values are drawn from ChEMBL document CHEMBL1201862, “PubChem BioAssay data set” (2004).
